The nature of data set [1]: Solubility in 50 mM phosphate buffer at pH 6.5 irradiated ultrasonically for 10 mins followed by incubation for 24 hrs by HPLC-UV analysis. It counts as physicochemical.
Data set [2] is described as follows: Solubility in fasted state simulated intestinal fluid irradiated ultrasonically for 10 mins followed by incubation for 24 hrs by HPLC-UV analysis. Type of data set: ADME.
The nature of data set [3]: Intrinsic clearance in human liver microsomes at 1 uM after 30 mins in presence of NADPH by LC-MS/MS analysis. Type of data set: ADME. Conditions: read-out: CLH.
Data set [4] in a line: Drug metabolism in mouse liver cytosol at 1 uM assessed as N-(2-Methoxy-4-((3-(4-methylpiperazin-1-yl)propyl)carbamoyl)phenyl)-4-oxo-3,4-dihydrothieno[3,2-d]pyrimidine-7-carboxamide formation after 30 mins in presence of NADPH by LC-MS/MS analysis. It counts as ADME. Conditions: 0.5 h.
A short description of data set [5]: Intrinsic clearance in mouse liver microsomes at 1 uM after 30 mins in presence of NADPH by LC-MS/MS analysis. Type of data set: ADME. Conditions: read-out: CLH.
For data set [6], the system named is Liver cytosol. Nature of the data set: Drug metabolism in human liver cytosol at 1 uM assessed as N-(2-Methoxy-4-((3-(4-methylpiperazin-1-yl)propyl)carbamoyl)phenyl)-4-oxo-3,4-dihydrothieno[3,2-d]pyrimidine-7-carboxamide formation after 30 mins in presence of NADPH by LC-MS/MS analysis. Type of data set: ADME. Conditions: 0.5 h.
The target in data set [7] is T1, Mitogen-activated protein kinase kinase kinase 7 (Homo sapiens, UniProt O43318).
T1 sequence (O43318 whole entry): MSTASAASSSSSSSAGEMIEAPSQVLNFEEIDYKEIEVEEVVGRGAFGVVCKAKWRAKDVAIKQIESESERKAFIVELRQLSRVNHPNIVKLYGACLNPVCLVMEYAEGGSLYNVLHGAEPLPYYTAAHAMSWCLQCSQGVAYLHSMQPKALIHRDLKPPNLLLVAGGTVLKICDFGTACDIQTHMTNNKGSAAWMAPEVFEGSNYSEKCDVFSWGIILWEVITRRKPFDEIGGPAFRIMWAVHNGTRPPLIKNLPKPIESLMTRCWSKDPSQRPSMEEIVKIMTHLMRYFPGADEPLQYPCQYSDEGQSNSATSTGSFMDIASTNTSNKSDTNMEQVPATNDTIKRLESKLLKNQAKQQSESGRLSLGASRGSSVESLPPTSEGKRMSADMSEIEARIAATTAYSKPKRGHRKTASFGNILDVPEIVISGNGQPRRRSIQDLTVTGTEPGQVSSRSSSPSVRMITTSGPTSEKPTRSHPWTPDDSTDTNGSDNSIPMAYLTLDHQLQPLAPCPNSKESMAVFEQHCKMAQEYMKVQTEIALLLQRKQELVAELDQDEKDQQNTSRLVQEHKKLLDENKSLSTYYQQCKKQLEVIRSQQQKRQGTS
Nature of the data set: Inhibition of recombinant TAK1 (unknown origin).

In data set [8] the target is T1, Mitogen-activated protein kinase kinase kinase 7. In words: Inhibition of recombinant FLAG-tagged TAK1 kinase domain (unknown origin) expressed in baculovirus expression system coexpressing TAB using biotin-labeled MKK6kd substrate incubated for 1 hr by AlphaScreen assay.
Data set [9] deals with Liver cytosol. Nature of the data set: Drug level in human liver cytosol treated with N-(2-Methoxy-4-((3-(4-methylpiperazin-1-yl)propyl)carbamoyl)phenyl)thieno[3,2-d]pyrimidine-7-carboxamide after 30 mins in presence of NADPH by LC-MS/MS analysis. Conditions: 0.5 h. Type of data set: ADME, tissue-based.
A short description of data set [10]: Drug level in mouse liver cytosol treated with N-(2-Methoxy-4-((3-(4-methylpiperazin-1-yl)propyl)carbamoyl)phenyl)thieno[3,2-d]pyrimidine-7-carboxamide after 30 mins in presence of NADPH by LC-MS/MS analysis. Type of data set: ADME, tissue-based. Conditions: 0.5 h.
Data set [11] can be described thus: Apparent permeability in human Caco2 cells. It counts as ADME, cell-based. Conditions: Caco-2.
Data set [12] concerns the target T1, Mitogen-activated protein kinase kinase kinase 7. In words: Inhibition of human recombinant TAK1 fused with TAB1 using MKK6 as substrate in presence of gamma-[33P]ATP.
For data set [13] the target is unchanged. In words: Inhibition of TAK1 (unknown origin).

Converted amounts (≈) assume the structure as drawn.

In the case of `COc1cc(N2CCN(C)CC2)ccc1NC(=O)c1csc2cncnc12`, the solubility at 24 h is 353 µg/mL (≈ 921 µM) in data set [1] and 351 µg/mL (≈ 915 µM) in [2]. The microsomal CLint at 1 µM in data set [3] was determined as 11 µL/min/mg.
Regarding `COc1cc(C(=O)N2CCN(C)CC2)ccc1NC(=O)c1csc2cncnc12`, the solubility at 24 h in [1] is 293 µg/mL (≈ 712 µM); in data set [2] it was 312 µg/mL (≈ 758 µM). Moreover, the microsomal CLint at 1 µM in data set [3] was determined as 26 µL/min/mg.
On to `COc1cc(C(=O)NCCCN2CCN(C)CC2)ccc1NC(=O)c1csc2cncnc12`, for which the Drug metabolism result (in data set [4]; in the data set on Liver cytosol [6]) was “metabolite_detected” throughout. Moreover, the solubility at 24 h in data set [1] is 377 µg/mL (≈ 805 µM); in data set [2], 420 µg/mL (≈ 896 µM). For the same compound, the microsomal CLint at 1 µM in [5] came out at 80 µL/min/mg; in data set [3] it was 21 µL/min/mg.
Consider `Cc1cc(NC(=O)Nc2cc(C(C)(C)C)nn2-c2cccc(C#N)c2)ccc1Oc1ccncc1`, for which, in data set [7], the IC50 is 156 nM.
With `COc1cc2ncccc2cc1NC(=O)c1csc2cncnc12`, the solubility at 24 h in data set [1] and in data set [2] was under 3 µg/mL throughout.
`CCc1cc(Nc2ncc(F)c(-c3cnc4cccnn34)n2)cc(OCCN2CCC(O)CC2)c1`: the concentration for half-maximal inhibition (IC50) in [8] was 8 nM.
With `COc1cc(C(=O)NCCCN2CCN(C)CC2)ccc1NC(=O)c1csc2c(=O)[nH]cnc12`, the Drug metabolism result (with Liver cytosol [9]; in data set [10]) was “metabolite_detected” each time.
Regarding `CC(C)Oc1c(NC(=O)c2csc3c(=O)[nH]cnc23)cccc1C(=O)N1CCN(C)CC1`, in data set [11], the apparent permeability (Papp) was under 1 ×10⁻⁶ cm/s.
For `C[C@H]1OC2C3=C(C(=O)[C@@H]4O[C@@H]4[C@H]3O)C1[C@@H]1[C@@H](C)OC=C3[C@H](O)[C@H]4O[C@H]4C(=O)[C@@]321` (stereo partly specified), in data set [12], the IC50 worked out at 20000 nM.
In turn, `COCCN1CCN(Cc2ccc(-c3cc(NC(N)=O)c(C(N)=O)s3)cc2)CC1` gave an IC50 in data set [13] of 50 nM.

The values are drawn from ChEMBL document CHEMBL3822434 (Bioorg Med Chem, 2016).
